Data set [1] in a line: cytotoxicity assay in 293 cells. Format: cell-based. Further details: key to effect of inhibiting tumor cell growth: “+” represents that the compound has the effect of inhibiting tumor cell growth. The settings on record: 293.
Data set [2] concerns kidney cancer cells (293). As to the kind of experiment: cytotoxicity assay in 293 cells. Format: cell-based. Further details: key to effect of inhibiting tumor cell growth: “+” represents that the compound has the effect of inhibiting tumor cell growth. The settings on record: Homo sapiens, HEK293.
Data set [3] is described as follows: cytotoxicity assay in HNOF cells. Type of data set: cell-based. Further details: key to effect of inhibiting tumor cell growth: “+” represents that the compound has the effect of inhibiting tumor cell growth. Conditions: human, HNOF cells.
The next data set relates to HNOF. As to the kind of experiment: cytotoxicity assay in HNOF cells. Format: cell-based. Further details: key to effect of inhibiting tumor cell growth: “+” represents that the compound has the effect of inhibiting tumor cell growth. The settings on record: HNOF.
The subject of another data set is lung cancer cells (A549). The data set can be described thus: cytotoxicity assay in A549 cells. The settings on record: for IC50: Homo sapiens. Further details: key to effect of inhibiting tumor cell growth: “+” represents that the compound has the effect of inhibiting tumor cell growth. Format: cell-based. A digest of the protocol: (§1)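 Reported values represent IC50 from cytotoxicity testing of the Formula (I) series.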

Data set [4] concerns lung cancer cells (H1299). As to the kind of experiment: cytotoxicity assay in H1299 cells. Further details: key to effect of inhibiting tumor cell growth: “+” represents that the compound has the effect of inhibiting tumor cell growth. Format: cell-based. Conditions: for effect of inhibiting tumor cell growth: H1299; for IC50: Homo sapiens, NCI-H1299. A digest of the protocol: as §1

In data set [5] the test system is lung cancer cells (Bm7brmx2-1st). As to the kind of experiment: cytotoxicity assay in Bm7brmx2-1st cells. Format: cell-based. Further details: key to effect of inhibiting tumor cell growth: “+” represents that the compound has the effect of inhibiting tumor cell growth. A digest of the protocol: as §1
Data set [6] relates to lung cancer cells (Bm7brmx2-2nd). As to the kind of experiment: cytotoxicity assay in Bm7brmx2-2nd cells. Type of data set: cell-based. Further details: key to effect of inhibiting tumor cell growth: “+” represents that the compound has the effect of inhibiting tumor cell growth. The essentials: as §1
Data set [7] relates to CDCP1 in Bm7 lung cancer cells. As to the kind of experiment: Western blot of ADAM9 and CDCP1 expression in Bm7 cells. Format: cell-based. Conditions: anchorage-free culture. Here is the method:
Please refer to FIG. 1A, FIG. 1B and Table 2, which show the analysis results of the compound of Formula (I) inhibiting ADAM9 activity. In FIG. 1A, Bm7 lung cancer cells were treated with the derivatives of the compound 6X-0310, and then cultured under anchorage-free culture condition. The expressions of ADAM9 and CDCP1 in Bm7 lung cancer cells were detected by Western blot, in which EF1α is an internal control, and mock represents Bm7 lung cancer cells without treatment. […] In the experiment, the compounds of Formula (I) of Example 1 to Example 32 were further performed cytotoxicity assay to measure the IC50 value of the compounds of Formula (I) of the present disclosure in lung cancer cell lines.
For orientation: Immunoblotting shows a protein as a band on a membrane.

Another data set deals with T1, recombinant human ADAM9 (Homo sapiens, UniProt Q13443).
T1 construct: purchased R&D system
T1 sequence (Q13443 29-819): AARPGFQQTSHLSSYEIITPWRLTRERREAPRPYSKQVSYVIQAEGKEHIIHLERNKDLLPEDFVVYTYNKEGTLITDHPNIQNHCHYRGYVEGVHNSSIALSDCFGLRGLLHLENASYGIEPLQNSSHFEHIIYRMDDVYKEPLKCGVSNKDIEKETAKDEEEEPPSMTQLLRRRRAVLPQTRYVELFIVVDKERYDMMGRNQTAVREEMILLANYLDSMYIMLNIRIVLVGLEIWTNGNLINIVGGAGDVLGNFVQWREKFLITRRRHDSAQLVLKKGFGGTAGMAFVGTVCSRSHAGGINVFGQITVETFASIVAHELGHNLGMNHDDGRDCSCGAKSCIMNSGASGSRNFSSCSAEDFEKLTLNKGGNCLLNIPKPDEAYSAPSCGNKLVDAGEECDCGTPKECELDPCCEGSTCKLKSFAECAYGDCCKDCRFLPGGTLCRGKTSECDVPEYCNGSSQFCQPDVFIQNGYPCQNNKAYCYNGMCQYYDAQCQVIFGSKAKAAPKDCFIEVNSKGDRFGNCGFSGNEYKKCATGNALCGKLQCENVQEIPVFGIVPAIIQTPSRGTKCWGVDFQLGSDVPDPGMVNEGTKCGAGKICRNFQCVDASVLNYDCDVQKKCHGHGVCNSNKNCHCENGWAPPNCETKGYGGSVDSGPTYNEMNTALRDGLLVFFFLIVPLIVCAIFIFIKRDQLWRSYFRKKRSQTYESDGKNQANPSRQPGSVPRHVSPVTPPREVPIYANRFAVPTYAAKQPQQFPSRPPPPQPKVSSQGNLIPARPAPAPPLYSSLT
As to the kind of experiment: ADAM9 enzymatic activity ELISA with fluorescent peptide substrate. Conditions: different concentrations. Type of data set: biochemical. An excerpt: To measure the efficacy of the compound of Formula (I) in suppression of ADAM9 enzymatic activity, an ELISA system was established using recombinant human ADAM9 and a fluorescent peptide substrate (R&D system) in the experiment. Broad-spectrum MMP inhibitor-BB-94 was included as a positive control. The compounds of Formula (I) used in this experiment were the compound SW1 and the compound SW2.
In general terms: An ELISA detects its analyte on a solid surface through an enzyme-linked reagent.

The next data set addresses ADAM17 (Homo sapiens, UniProt P78536). As to the kind of experiment: inhibition of ADAM17 activity. The settings on record: different concentrations. Type of data set: biochemical.
The test system of data set [8] is Bm7 lung cancer cells. As to the kind of experiment: migration inhibition assay. Type of data set: cell-based. Conditions: 25 μM, control Bm7 lung cancer cells (shGFP). The procedure:
To further evaluate the specificity of the compound SW1 and the compound SW2, control Bm7 lung cancer cells (treated with shGFP) and ADAM9 knockout (KO) Bm7 lung cancer cells (treated with shADAM9) were treated with 25 μM of the compound SW1 or the compound SW2, respectively, and then performed a migration inhibition assay.

For data set [9], the system named is lung cancer brain metastatic cell line-Bm7brmx2. As to the kind of experiment: anoikis in anchorage-free culture, Bm7brmx2. Conditions: read-out: IC50 value for anoikis (anchorage-free induced apoptosis). Type of data set: cell-based. The procedure: (§2) To ensure the compound SW1 and the compound SW2 in blocking anoikis-resistance of cancer cells, the IC50 value (unit is μM) of the compound SW1 and the compound SW2 for anoikis (anchorage-free induced apoptosis) in lung cancer brain metastatic cell line-Bm7brmx2, breast cancer brain metastatic cell line-MDA-231 brm and leukocytes in anchorage-free culture conditions were determined.

The test system of data set [10] is breast cancer brain metastatic cell line-MDA-231 brm. As to the kind of experiment: anoikis in anchorage-free culture, MDA-231brm. Conditions: read-out: IC50 value for anoikis (anchorage-free induced apoptosis). Format: cell-based. The procedure: as §2
For a further data set, the system named is leukocytes. As to the kind of experiment: anoikis in anchorage-free culture, leukocytes. Conditions: Leukocyte, read-out: IC50 value for anoikis (anchorage-free induced apoptosis). Type of data set: cell-based. Here is the method:
as §2

Data set [11] concerns control Bm7 lung cancer cells. As to the kind of experiment: colony-forming assay, Bm7. Type of data set: cell-based. The settings on record: 20 μM, control Bm7 lung cancer cells (shGFP). The procedure: (§3) To further test the planting efficiency of tumor cells treated with the compound SW1 and the compound SW2, in the experiment, control Bm7 lung cancer cells (treated with shGFP) and ADAM9 KO Bm7 lung cancer cells (treated with shADAM9) were treated with 20 μM of the compound SW1 or the compound SW2 respectively, and TC1-wild-type (WT) lung cancer cells and TC1-ADAM9 KO lung cancer cells were treated with 10 μM of the compound SW1 or the compound SW2 respectively. Then colony-forming assay was used to confirm the planting efficiency of each test group. Please refer to FIGS. 2D and 2E, wherein mock represents the tumor cell lines without treatment of the compound SW1 or the compound SW2. Representative images of colony-forming assay are shown at the bottom, and data are means±SD of 6 separate wells.

Data set [12] deals with TC1-WT lung cancer cells. The data set can be described thus: colony-forming assay, TC1. Type of data set: cell-based. Conditions: 10 μM. Here is the method: as §3
Data set [13] concerns TC1-WT lung cancer cells. The data set can be described thus: Annexin V and PI staining for cell apoptosis. Type of data set: cell-based. Conditions: 24 hours, compared with TC1-ADAM9 KO lung cancer cells. Here is the method: In the experiment, TC1-WT lung cancer cells and TC1-ADAM9 KO lung cancer cells were further treated with the compound SW1 or the compound SW2 for 24 hours, and then stained with Annexin V and PI to detect cell apoptosis. Please refer to FIG. 2F, where the percentage of Annexin V+ cells (apoptotic cells) is the statistical result from three independent experiments, with mean±SD.

Another data set concerns Pan18-GFP-Luc. As to the kind of experiment: cytotoxicity on pancreatic cancer cells, Pan18-GFP-Luc. The settings on record: Pancreatic cancer cell. Format: cell-based. Here is the method:
In addition, the IC50 values (unit is μM) of the compound SW1 and the compound SW2 on pancreatic cancer cells were measured in the experiment.

The test system of data set [14] is Bm7 lung cancer cells. The data set can be described thus: tumor sphere formation. Format: cell-based. The settings on record: 25 μM, 12 hours. Here is the method:
In the experiment, the Bm7 lung cancer cells were treated with 25 μM of the compound SW1 or the compound SW2 for 12 hours, and the number of tumor spheres formed was determined. Please refer to FIG. 2H, where mock represents Bm7 lung cancer cells without treatment.

Sequence of ADAM17 (P78536 215-824, species assumed): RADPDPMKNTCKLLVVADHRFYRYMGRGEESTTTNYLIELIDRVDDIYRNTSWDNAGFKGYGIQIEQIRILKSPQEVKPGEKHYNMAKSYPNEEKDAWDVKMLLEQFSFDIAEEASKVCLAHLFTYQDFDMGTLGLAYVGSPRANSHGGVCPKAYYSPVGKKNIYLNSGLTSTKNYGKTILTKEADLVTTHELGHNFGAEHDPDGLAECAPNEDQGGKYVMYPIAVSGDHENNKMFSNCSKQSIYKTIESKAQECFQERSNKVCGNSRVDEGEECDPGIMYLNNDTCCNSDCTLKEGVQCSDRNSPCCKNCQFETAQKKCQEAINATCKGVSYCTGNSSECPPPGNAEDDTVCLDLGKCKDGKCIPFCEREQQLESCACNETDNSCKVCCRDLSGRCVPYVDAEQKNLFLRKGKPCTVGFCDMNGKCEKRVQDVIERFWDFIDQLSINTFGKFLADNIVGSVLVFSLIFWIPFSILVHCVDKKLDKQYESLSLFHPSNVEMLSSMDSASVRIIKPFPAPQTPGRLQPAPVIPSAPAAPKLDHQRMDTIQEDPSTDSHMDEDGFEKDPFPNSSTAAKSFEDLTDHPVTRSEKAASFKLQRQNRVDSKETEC

For the molecule `O=C1c2ccccc2C(=O)N1CCc1csc(Nc2nc(CCN3C(=O)c4ccccc4C3=O)cs2)n1` [SW1], the “effect of inhibiting tumor cell growth” value (in [1]; in the data set with HNOF; with lung cancer cells (A549); in data set [4]; in data set [5]; in data set [6]) was “+” each time. In addition, the concentration for half-maximal inhibition (IC50) amounted to 81.3 µM in [2]; 97.8 µM in [3]; 434 µM in the data set with lung cancer cells (A549); 76.9 µM in [4]; 40.4 µM in data set [5]; 43.5 µM in [6]. Besides, the concentration for half-maximal inhibition (IC50) in data set [9] is 20 µM; in data set [10], 4.5 µM; in the data set with leukocytes, more than 200 µM; with Pan18-GFP-Luc it was 0.3 µM. Moreover, the “expression of CDCP1” value in [7] is recorded as “reduce the expression of CDCP1”. The “inhibition of ADAM9 activity” value at recombinant human ADAM9 is given as “decrease ADAM9 activity to a similar extent in a dose-dependent manner”. Also, the “inhibition of ADAM17 activity” value against ADAM17 is “no inhibitory effects”. In addition, the migration ability entry in the data set on Bm7 lung cancer cells [8] is on record as “significantly reduce the migration ability”. For the same molecule, the “planting efficiency, colony-forming assay” value (in data set [11]; in the data set with TC1-WT lung cancer cells [12]) was “greatly reduce the planting efficiency” throughout. Also, the “cell apoptosis (Annexin V+ cells)” value in the data set with TC1-WT lung cancer cells [13] is “induce cell apoptosis”. Also, the “number of tumor spheres formed” value with Bm7 lung cancer cells [14] is “greatly reduce the number of tumor spheres”.
`O=C(Nc1nc(CCN2C(=O)c3ccccc3C2=O)cs1)c1cc2ccccc2s1` [SW2]: the “effect of inhibiting tumor cell growth” value (in [1]; in the data set on HNOF; in the data set with lung cancer cells (A549); in data set [4]; in data set [5]; in [6]) was “+” throughout. Moreover, the concentration for half-maximal inhibition (IC50) is 15 µM in [2]; 61.9 µM in [3]; 458 µM with lung cancer cells (A549); 32 µM in data set [4]; 44.3 µM in data set [5]; 45.1 µM in [6]. For the same molecule, the IC50 in data set [9] was 27 µM; in data set [10], 7.5 µM; in the data set on leukocytes, 76 µM; with Pan18-GFP-Luc, 112 µM. The “expression of CDCP1” value in data set [7] is on record as “reduce the expression of CDCP1”. The “inhibition of ADAM9 activity” value at recombinant human ADAM9 is on record as “decrease ADAM9 activity to a similar extent in a dose-dependent manner”. For the same molecule, the “inhibition of ADAM17 activity” value at ADAM17 is on record as “no inhibitory effects”. In addition, the migration ability entry in the data set with Bm7 lung cancer cells [8] is “significantly reduce the migration ability”. The “planting efficiency, colony-forming assay” value (in data set [11]; in the data set with TC1-WT lung cancer cells [12]) was “greatly reduce the planting efficiency” throughout. For the same molecule, in the data set on TC1-WT lung cancer cells [13], the “cell apoptosis (Annexin V+ cells)” value was “induce cell apoptosis”. Moreover, the “number of tumor spheres formed” value in the data set on Bm7 lung cancer cells [14] is “greatly reduce the number of tumor spheres”.

By IC50 is commonly meant the concentration that inhibits the measured activity by half.

The record behind these values is patent US20220202783A1, “Use Of ADAM9 Inhibitor As Immunomodulator” (China Medical University, priority 2019, published 2022).
